Values joined by “and” are separate entries in the source; they are usually repeats but may differ in a detail not shown here. Equal entries are not always repeated.
System: BDF1 mice, Adenocarcinoma 755 s.c., tumor weight T/C
Experiment: NCI In Vivo Anticancer Drug Screen. Data for tumor model Adenocarcinoma 755 (subcutaneous) in B6D2F1 (BDF1) mice
Conditions: endpoint: mean tumor weight, higher = larger tumour
How it was run: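 Compound activity was tested in mice carrying transplanted tumors. Survival or tumor size was measured, and each value is the treated-group measurement divided by that of the vehicle-treated control group (T/C).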

[1] = dose: 225.0 mg/kg/injection, schedule: Q01DX011 (ip), vehicle: methylcellulose (MC)
[2] = dose: 3.0 mg/kg/injection, schedule: Q01DX011 (ip), vehicle: methylcellulose (MC)
[3] = dose: 15.0 mg/kg/injection, schedule: Q01DX011 (ip), vehicle: methylcellulose (MC)
[4] = dose: 12.5 mg/kg/injection, schedule: Q01DX011 (ip), vehicle: carboxymethylcellulose (CMC)
[5] = dose: 25.0 mg/kg/injection, schedule: Q01DX011 (ip), vehicle: carboxymethylcellulose (CMC)
[6] = dose: 25.0 mg/kg/injection, schedule: Q01DX011 (ip), vehicle: methylcellulose (MC)
[7] = dose: 15.0 mg/kg/injection, schedule: Q01DX011 (ip), vehicle: carboxymethylcellulose (CMC)
[8] = dose: 30.0 mg/kg/injection, schedule: Q01DX011 (ip), vehicle: carboxymethylcellulose (CMC)

Structure (SMILES): CS(=O)(=O)OCCC(=O)NCCCCCCNC(=O)CCOS(C)(=O)=O
- T/C (dose: 57.0 mg/kg/injection, schedule: Q01DX011 (ip), vehicle: methylcellulose (MC)): 117 % of control
- T/C (dose: 113.0 mg/kg/injection, schedule: Q01DX011 (ip), vehicle: methylcellulose (MC)): 110 % of control
- T/C [1]: 45 % of control

Structure (SMILES): CC(C)Sc1nc(N)nc2c1ncn2C1OC(CO)C(O)C1O (centres undefined)
- T/C (dose: 0.38 mg/kg/injection, schedule: Q01DX011 (ip), vehicle: methylcellulose (MC)): 48 % of control
- T/C (dose: 0.75 mg/kg/injection, schedule: Q01DX011 (ip), vehicle: methylcellulose (MC)): 60 % of control
- T/C (dose: 1.5 mg/kg/injection, schedule: Q01DX011 (ip), vehicle: methylcellulose (MC)): 40 % of control
- T/C [2]: 36 % of control
- T/C (dose: 3.1 mg/kg/injection, schedule: Q01DX011 (ip), vehicle: methylcellulose (MC)): 3 % of control

Structure (SMILES): CC(=O)Nc1nc(SCc2ccccc2)c2ncn(C(C)=O)c2n1
- T/C (dose: 7.5 mg/kg/injection, schedule: Q01DX011 (ip), vehicle: methylcellulose (MC)): 53 % of control
- T/C [3]: 4 % of control
- T/C (dose: 30.0 mg/kg/injection, schedule: Q01DX011 (ip), vehicle: methylcellulose (MC)): 2 % of control

Structure (SMILES): CN(CC(=O)O)C(=N)N
- T/C (dose: 1500.0 mg/kg/injection, schedule: Q#A X022 (ip), vehicle: water): 86 % of control
- T/C (dose: 2500.0 mg/kg/injection, schedule: Q#A X022 (ip), vehicle: water): 66 % of control

Structure (SMILES): C=CC(=O)NCNC(=O)CCBr
- T/C [4]: 62 % of control
- T/C [5]: 34 % of control
- T/C (dose: 50.0 mg/kg/injection, schedule: Q01DX011 (ip), vehicle: carboxymethylcellulose (CMC)): 1 % of control

Structure (SMILES): CCN(CC)C(=O)CSc1nc(N)nc2nc[nH]c12
- T/C [6]: 45 % of control
- T/C (dose: 50.0 mg/kg/injection, schedule: Q01DX011 (ip), vehicle: methylcellulose (MC)): 12 % of control
- T/C (dose: 100.0 mg/kg/injection, schedule: Q01DX011 (ip), vehicle: methylcellulose (MC)): 10 % of control
- T/C (dose: 200.0 mg/kg/injection, schedule: Q01DX011 (ip), vehicle: methylcellulose (MC)): 3 % of control and 13 % of control
- T/C (dose: 400.0 mg/kg/injection, schedule: Q01DX011 (ip), vehicle: methylcellulose (MC)): 4 % of control

Structure (SMILES): CC1CCC(n2cnc3c(Cl)ncnc32)O1 (centres undefined)
- T/C (dose: 3.7 mg/kg/injection, schedule: Q01DX011 (ip), vehicle: carboxymethylcellulose (CMC)): 58 % of control
- T/C (dose: 7.5 mg/kg/injection, schedule: Q01DX011 (ip), vehicle: carboxymethylcellulose (CMC)): 35 % of control
- T/C [7]: 63 % of control
- T/C [8]: 15 % of control and 23 % of control
- T/C (dose: 60.0 mg/kg/injection, schedule: Q01DX011 (ip), vehicle: carboxymethylcellulose (CMC)): 5 % of control

Structure (SMILES): C[N+](C)(C)c1ncnc2c1ncn2C1OC(CO)C(O)C1O (centres undefined)
- T/C (dose: 30.0 mg/kg/injection, schedule: Q01DX011 (ip), vehicle: saline): 48 % of control and 61 % of control
- T/C (dose: 60.0 mg/kg/injection, schedule: Q01DX011 (ip), vehicle: saline): 109 % of control
- T/C (dose: 120.0 mg/kg/injection, schedule: Q01DX011 (ip), vehicle: saline): 28 % of control
- T/C (dose: 240.0 mg/kg/injection, schedule: Q01DX011 (ip), vehicle: saline): 9 % of control

Structure (SMILES): NC(Cc1cccs1)C(=O)O (centres undefined)
- T/C (dose: 125.0 mg/kg/injection, schedule: Q01DX011 (ip), vehicle: carboxymethylcellulose (CMC)): 71 % of control and 72 % of control
- T/C (dose: 125.0 mg/kg/injection, schedule: Q01DX011 (ip), vehicle: methylcellulose (MC)): 90 % of control
- T/C (dose: 250.0 mg/kg/injection, schedule: Q01DX011 (ip), vehicle: carboxymethylcellulose (CMC)): 91 % of control and 106 % of control
- T/C (dose: 250.0 mg/kg/injection, schedule: Q01DX011 (ip), vehicle: methylcellulose (MC)): 155 % of control
- T/C (dose: 500.0 mg/kg/injection, schedule: Q01DX011 (ip), vehicle: carboxymethylcellulose (CMC)): 65 % of control and 78 % of control
- T/C (dose: 500.0 mg/kg/injection, schedule: Q01DX011 (ip), vehicle: methylcellulose (MC)): 59 % of control
- T/C (dose: 1000.0 mg/kg/injection, schedule: Q01DX011 (ip), vehicle: carboxymethylcellulose (CMC)): 96 % of control and 102 % of control
- T/C (dose: 1000.0 mg/kg/injection, schedule: Q01DX011 (ip), vehicle: methylcellulose (MC)): 52 % of control

Structure (SMILES): Cn1c(=O)c2c(nc(COCc3nc4c(c(=O)n(C)c(=O)n4C)n3C)n2C)n(C)c1=O
- T/C [6]: 60 % of control
- T/C (dose: 75.0 mg/kg/injection, schedule: Q01DX011 (ip), vehicle: methylcellulose (MC)): 82 % of control
- T/C [1]: 33 % of control

Structure (SMILES): O=P1(N(CCCl)CCCl)NCCCO1 (centres undefined)
- T/C (dose: 6.25 mg/kg/injection, schedule: Q01DX011 (ip), vehicle: saline): 87 % of control
- T/C (dose: 7.13 mg/kg/injection, schedule: Q01DX011 (ip), vehicle: carboxymethylcellulose (CMC)): 59 % of control
- T/C (dose: 7.66 mg/kg/injection, schedule: Q01DX011 (ip), vehicle: carboxymethylcellulose (CMC)): 92 % of control
- T/C (dose: 10.22 mg/kg/injection, schedule: Q01DX011 (ip), vehicle: carboxymethylcellulose (CMC)): 92 % of control
- T/C (dose: 11.4 mg/kg/injection, schedule: Q01DX011 (ip), vehicle: carboxymethylcellulose (CMC)): 46 % of control
- T/C (dose: 12.25 mg/kg/injection, schedule: Q01DX011 (ip), vehicle: carboxymethylcellulose (CMC)): 52 % of control
- T/C [4]: 57 % of control
- T/C (dose: 12.5 mg/kg/injection, schedule: Q01DX011 (ip), vehicle: saline): 36 % of control and 60 % of control
- T/C (dose: 14.25 mg/kg/injection, schedule: Q01DX011 (ip), vehicle: carboxymethylcellulose (CMC)): 22 % of control and 29 % of control
- T/C (dose: 19.0 mg/kg/injection, schedule: Q01DX011 (ip), vehicle: carboxymethylcellulose (CMC)): 22 % of control
- T/C (dose: 20.43 mg/kg/injection, schedule: Q01DX011 (ip), vehicle: carboxymethylcellulose (CMC)): 66 % of control
- T/C [5]: 8 % of control
- T/C (dose: 25.0 mg/kg/injection, schedule: Q01DX011 (ip), vehicle: saline): 30 % of control and 55 % of control
- T/C (dose: 28.5 mg/kg/injection, schedule: Q01DX011 (ip), vehicle: carboxymethylcellulose (CMC)): 4 % of control and 15 % of control
- T/C (dose: 30.65 mg/kg/injection, schedule: Q01DX011 (ip), vehicle: carboxymethylcellulose (CMC)): 6 % of control and 29 % of control
- T/C (dose: 50.0 mg/kg/injection, schedule: Q01DX011 (ip), vehicle: saline): 8 % of control and 17 % of control
- T/C (dose: 57.0 mg/kg/injection, schedule: Q01DX011 (ip), vehicle: carboxymethylcellulose (CMC)): 3 % of control
- T/C (dose: 61.3 mg/kg/injection, schedule: Q01DX011 (ip), vehicle: carboxymethylcellulose (CMC)): 5 % of control

Structure (SMILES): NC(=O)c1ccc(NC(=O)CCC(=O)Nc2ccc(C(N)=O)cn2)nc1
- T/C (dose: 0.25 mg/kg/injection, schedule: Q01DX011 (ip), vehicle: carboxymethylcellulose (CMC)): 83 % of control
- T/C (dose: 0.5 mg/kg/injection, schedule: Q01DX011 (ip), vehicle: carboxymethylcellulose (CMC)): 93 % of control
- T/C (dose: 1.0 mg/kg/injection, schedule: Q01DX011 (ip), vehicle: carboxymethylcellulose (CMC)): 80 % of control
- T/C (dose: 2.0 mg/kg/injection, schedule: Q01DX011 (ip), vehicle: carboxymethylcellulose (CMC)): 33 % of control
- T/C (dose: 2.5 mg/kg/injection, schedule: Q01DX011 (ip), vehicle: carboxymethylcellulose (CMC)): 16 % of control
- T/C (dose: 5.0 mg/kg/injection, schedule: Q01DX011 (ip), vehicle: carboxymethylcellulose (CMC)): 7 % of control

Structure (SMILES): COc1ccc2c(c1)/C(=C/CCN(C)C)c1ccccc1S2
- T/C (dose: 1.0 mg/kg/injection, schedule: Q01DX011 (ip), vehicle: methylcellulose (MC)): 87 % of control
- T/C (dose: 2.0 mg/kg/injection, schedule: Q01DX011 (ip), vehicle: methylcellulose (MC)): 87 % of control
- T/C [2]: 27 % of control
- T/C (dose: 4.0 mg/kg/injection, schedule: Q01DX011 (ip), vehicle: carboxymethylcellulose (CMC)): 93 % of control
- T/C (dose: 7.0 mg/kg/injection, schedule: Q01DX011 (ip), vehicle: carboxymethylcellulose (CMC)): 29 % of control
- T/C (dose: 7.0 mg/kg/injection, schedule: Q01DX011 (ip), vehicle: methylcellulose (MC)): 42 % of control
- T/C [7]: 67 % of control
- T/C [3]: 39 % of control
- T/C [8]: 47 % of control
